Test results reported in patent US20140088052A1, “CHALCONE DERIVATIVES AS NRF2 ACTIVATORS” (THE JOHNS HOPKINS UNIVERSITY, priority 2011, published 2014).

Legend:
hematopoietic stem cells = experiment: Bone marrow mononuclear cells and hematopoietic stem cells in irradiated mice; assay type: in vivo; conditions: 6.9Gy, single dose 24 h after irradiation, compared to vehicle
Nrf2 = experiment: In vivo potency to activate Nrf2: GCLM and NQO1 expression in mouse small intestine; set-up: species or system mice (C57BL/6); conditions: mice, single dose 50 mg/kg by gavage, 24 h
Experimental: Mice (n=4) were fed with vehicle (DCP-10% DMSO+10% Cremophor+80% phosphate buffered saline) or chalcone derivatives or sulforaphane (50 mg/kg body weight) by gavage, and the small intestines were harvested 24 hours later. The expression of Nrf2-regulated genes GCLM and NQO1 was analyzed in the tissues by qRT-PCR as a surrogate marker of Nrf2 activity. β-actin was used for normalization. Data are representative of three independent experiments. Values shown are mean±SD of triplicate wells (P≦0.05);
The potency of the 8 lead chalcones identified in the in vitro screening to activate Nrf2 pathway were evaluated in mouse models. First, various formulations to dissolve the compounds were evaluated, and the DCP (10% DMSO+10% Cremophor EL+80% phosphate buffered saline) formulation offered the maximum solubility for delivery of these compounds by oral route. Mice (C57BL/6) were administrated with a single dose of vehicle or test compound(s) or sulforaphane as the positive control at a dose of 50 mg/kg body weight by gavage and small intestines were harvested 24 h later. The expression of Nrf2-regulated genes GCLM and NQO1 was analyzed in the tissue by qRT-PCR. All the eight compounds tested increased the expression of GCLM and NQO1 in small intestine. […] The expression of GCLM and NQO1 in the small intestine of mice treated with 2b was 6-fold and 10-fold higher compared to vehicle, respectively. Similarly, the expression of GCLM and NQO1 in the small intestine treated with 2b was 3-fold and 5-fold higher compared to sulforaphane, respectively.
All experiments in mice were performed in accordance with the standards established by the U.S. Animal Welfare Acts, set forth in NIH guidelines and the Policy and Procedures Manual of the Johns Hopkins University Animal Care and Use Committee. C57BL/6 mice (male, 7 weeks) were maintained on AIN 76A diet (Harlan Tekland, Madison, Wis.) and water ad libitum and housed at a temperature (range, 20-23° C.) under 12 h light/dark cycles. The mice were treated with chalcone analogs (50 mg/kg body weight) or vehicle or sulforaphane as a positive control by gavage. After 24 h treatment, the small intestines were harvested and stored at −80° C. until analysis.
Total RNA was extracted from cells/tissue using Qiagen RNeasy kit (Qiagen Corporation, Valencia, Calif.) and reverse transcription was performed by using random hexamers and MultiScribe reverse transcriptase according to the manufacturer's recommendations (Applied Biosystems, Foster City, Calif., USA). Quantitative real-time RT-PCR analyses of Nrf2, NQO1, HO1, and GCLM were performed by using Assay-on-Demand primers and probe sets from Applied Biosystems. Assays were performed using the ABI 7000 Taqman system (Applied Biosystems, Foster City, Calif.). β-actin was used for normalization.

In the case of COc1ccccc1C(=O)/C=C/c1ccccc1C(F)(F)F [Compound 2b, (E)-1-(2-methoxyphenyl)-3-(2-(trifluoromethyl)phenyl)prop-2-en-1-one], the “total BM-MNC per limb and total HSPC, HSC and MPP” value (hematopoietic stem cells; analysed 24 h after treatment) is reported as “significantly higher”, the “viable hematopoietic stem cells (colony forming cells assay)” value (hematopoietic stem cells) is reported as “increased number of hematopoietic stem cells” and the “expression of GCLM in the small intestine, compared to sulforaphane” value (Nrf2) is reported as 3 fold. The “expression of GCLM in the small intestine, compared to vehicle” value (Nrf2) was 6 fold, the “expression of NQO1 in the small intestine, compared to sulforaphane” value (Nrf2) was 5 fold and the “expression of NQO1 in the small intestine, compared to vehicle” value (Nrf2) was 10 fold. For the same compound, the “expression of GCLM and NQO1 in small intestine (Nrf2 activity)” value (Nrf2; in words) was “most potent inducer of Nrf2 activity”.
